SMILES strings stand for the structures. Where two headings read alike, the source gives them in different places.

We go through eight compounds from patent US6624317B1, “Taxoid conjugates as antimitotic and antitumor agents” (priority 2000, dated 2003).

The test system of one data set is breast cancer (MCF-7). Nature of the data set: in vitro cytotoxicity assay, MCF-7. The note with it: read-out: Cytotoxicity (ED50) MCF-7. How it is done: (§1) Biological Assay. The in vitro cytotoxicity assay was carried out according to procedures described in Rubinstein et al. (P. Ferguson et al., Cancer Res. 1988, 48, 5956-5964). […] The human tumor cell line panel consisted of epiderimoid carcinoma of the nasopharynx (KB), lung carcinoma (A-549), ileocecal carcinoma (HCT-8), renal cancer (CAKI-1), breast cancer (MCF-7), melanoma cancer (SKMEL-2), and ovarian cancer (1A9). The drug resistant cell line panel consisted of three KB-derivatives, -7d, -CPT, and -VCR. The properties of these cells are described elsewhere (P. Ferguson et al., Cancer Res. 1988, 48, 5956-5964; D. Beidler et al., Cancer Res. 1996, 56, 345-353). […] They were a generous gift of Dr. P. Giannakakou (P. Giannakakou et al., J. Biol. Chem. 1997, 27, 17118-17125). Cells were cultured at 37° C. in RPMI-1640 with 100 ug/mL kanamycin and 10% (v/v) fetal bovine serum in a humidified atmosphere containing 5% CO2. Initial seeding densities varied among the cell lines to ensure a final absorbance of 1-2.5 A562 units. Drug exposure was for 3 days, and the ED50 value, the drug concentration that reduced the absorbance by 50%, was interpolated from dose-response data.

The next data set has as its system renal cancer (CAKI-1). As to the kind of experiment: in vitro cytotoxicity assay, CAKI-1. The note with it: read-out: Cytotoxicity (ED50) CAKI-1. How it is done: as §1
A further data set has as its system lung carcinoma (A-549). Nature of the data set: in vitro cytotoxicity assay, A549. The following applies: read-out: Cytotoxicity (ED50) A549. How it is done:
as §1

The test system of another data set is ovarian cancer (1A9). As to the kind of experiment: in vitro cytotoxicity assay, 1A9. The following applies: read-out: Cytotoxicity (ED50) 1A9 (OVCAR). How it is done: as §1
For data set [1], the system named is epiderimoid carcinoma of the nasopharynx (KB). Nature of the data set: in vitro cytotoxicity assay, KB. It counts as cell-based, human. The note with it: drug exposure 3 days. How it is done:
as §1

Data set [2] concerns melanoma cancer (SKMEL-2). As to the kind of experiment: in vitro cytotoxicity assay, SK-MEL-2. The following applies: read-out: Cytotoxicity (ED50) SK-MEL-2. How it is done: as §1
The subject of a further data set is PAX-10. Nature of the data set: cytotoxicity in paclitaxel-resistant 1A9 sub-line PAX-10. Format: cell-based, human. The note with it: PAX-10 paclitaxel-resistant 1A9 sub-line. How it is done: as §1
(§2) The newly synthesized taxoid-4′-O-demethyl epipodophyllotoxin conjugates were evaluated in house using standard cytotoxicity assays in human tumor (HTCL) and drug-resistant (DRCL) cell lines. Reference compounds were paclitaxel (1), cephalomannine (2), and epipodophyllotoxins [etoposide (5) and GL-331 (7), see FIG. 1]. The HTCL panel was comprised of KB, A549, HCT-8, CAKI-1, MCF-7, SK-MEL-2, and 1A9 cell lines. Two paclitaxel-resistant 1A9 sub-lines designated as PAX-10 and PAX-22 were also tested as part of the DRCL panel. Other resistant-cell lines were KB derivatives expressing various mechanisms or multi-drug resistance as described elsewhere (P. Ferguson et al., Cancer Res. 1988, 48, 5956-5964; D. Beidler et al., Cancer Res. 1996, 56, 345-353).

Data set [3] concerns ileocecal carcinoma (HCT-8). Nature of the data set: in vitro cytotoxicity assay, HCT-8. The note with it: read-out: Cytotoxicity (ED50) HCT-8. How it is done: as §1
Data set [4] relates to human KB and DU-145 tumor cells in nude mice. The following applies: earlier work; cited from earlier work.
Data set [5] has as its system protein-linked DNA breaks (PLDB). The following applies: drug treated cells; earlier work; cited from earlier work.
In data set [6] the test system is paclitaxel resistant cells. Nature of the data set: cytotoxicity against paclitaxel resistant cells (overall). Format: cell-based, human. The following applies: compared with the unconjugated components, Table 3. How it is done:
as §1, §2

The test system of data set [7] is Cellular protein-DNA complex formation. Nature of the data set: Protein-linked DNA break assay (cellular protein-DNA complex formation). Format: cell-based. The note with it: Etoposide given as 100; NA^1 not active at 50 uM, NA^2 not active at 100 uM. An excerpt:
(§3) Protein-Linked DNA Break and Topoisomerase 11 Activity Assays. The procedures were done according to detailed published methods (K. Bastow et al., Bioorg. Med. Chem. 1997, 5, 1481-1488).

The subject of another data set is KB-VCR. Nature of the data set: cytotoxicity in drug resistant cell line KB-VCR. It counts as cell-based, human. The following applies: KB-VCR drug resistant KB derivative. How it is done: as §1, §2
For another data set, the system named is Topoisomerase II. As to the kind of experiment: Topoisomerase II activity assay (inhibition of topo II in vitro). Format: biochemical. The following applies: NA^1 not active at 50 uM, NA^2 not active at 100 uM.
Excerpt: as §3

The test system of a further data set is KB-CPT. Nature of the data set: cytotoxicity in drug resistant cell line KB-CPT. It counts as cell-based, human. The following applies: KB-CPT drug resistant KB derivative. How it is done:
as §1, §2

For another data set, the system named is KB-7d. Nature of the data set: cytotoxicity in drug resistant cell line KB-7d. It counts as cell-based, human. The note with it: KB-7d drug resistant KB derivative. How it is done:
as §1, §2

Another data set relates to PAX-22. Nature of the data set: cytotoxicity in paclitaxel-resistant 1A9 sub-line PAX-22. It counts as cell-based, human. The note with it: PAX-22 paclitaxel-resistant 1A9 sub-line. How it is done: as §1, §2
Where [8] appears, read: A549, drug exposure 3 days, NA = not active.
Setting [9] is: 1A9 (OVCAR), drug exposure 3 days.
[10] abbreviates: SK-MEL-2, drug exposure 3 days, NA = not active.
Setting [11] is: HCT-8, drug exposure 3 days, NA = not active.

Regarding `C/C=C(\C)C(=O)N[C@@H](c1ccccc1)[C@@H](O)C(=O)O[C@H]1C[C@@]2(O)[C@@H](OC(=O)c3ccccc3)[C@@H]3[C@]4(OC(C)=O)CO[C@@H]4C[C@H](O)[C@@]3(C)C(=O)[C@H](OC(C)=O)C(=C1C)C2(C)C` [Cephalomannine, cephalomannine, reference compound], the EC50 in the data set with breast cancer (MCF-7) (Homo sapiens, MCF7, 72 h) was 167 nM; with renal cancer (CAKI-1) (Homo sapiens, CAKI-1, 72 h), more than 300 nM; in the data set on lung carcinoma (A-549) (Homo sapiens, A549, 72 h) it was 9 nM; in the data set on ovarian cancer (1A9) (Homo sapiens, 72 h), 3 nM; in data set [2] (Homo sapiens, SK-MEL-2, 72 h), 134 nM; in data set [3] (Homo sapiens, HCT-8, 72 h), 47 nM. Moreover, the “Cytotoxicity (ED50) KB” value in data set [1] is 2 nM. Further, the “Resistance Fold PAX-10” value in the data set on PAX-10 stood at 40.
Regarding `CC[C@@]1(O)C(=O)OCc2c1cc1n(c2=O)Cc2c-1nc1ccccc1c2C=Nc1ccc(N[C@@H]2c3cc4c(cc3[C@@H](c3cc(OC)c(O)c(OC)c3)[C@H]3C(=O)OC[C@@H]32)OCO4)cc1` [Compound 3], the “in vivo antitumor activity (in words)” value in data set [4] is “more active than either etoposide or CPT”. The “induction of protein-linked DNA breaks (PLDB) (in words)” value in data set [5] is listed as “induced protein-linked DNA breaks (PLDB) in a concentration dependent manner”.
For the compound `CC[C@@]1(O)C(=O)OCc2c1cc1n(c2=O)Cc2c-1nc1ccccc1c2C=Nc1ccccc1N[C@@H]1c2cc3c(cc2[C@@H](c2cc(OC)c(O)c(OC)c2)[C@H]2C(=O)OC[C@@H]21)OCO3` [Compound 4], the “induction of protein-linked DNA breaks (PLDB) (in words)” value in data set [5] was “induced protein-linked DNA breaks (PLDB) in a concentration dependent manner”.
Take `C/C=C(\C)C(=O)N[C@@H](c1ccccc1)[C@@H](OC(=O)c1ccc(C=N[C@@H]2c3cc4c(cc3[C@@H](c3cc(OC)c(O)c(OC)c3)[C@H]3C(=O)OC[C@@H]32)OCO4)cc1)C(=O)O[C@H]1C[C@@]2(O)[C@@H](OC(=O)c3ccccc3)[C@@H]3[C@]4(OC(C)=O)CO[C@@H]4C[C@H](O)[C@@]3(C)C(=O)[C@H](OC(C)=O)C(=C1C)C2(C)C` [Compound 14]: the EC50 in the data set with breast cancer (MCF-7) (MCF-7, drug exposure 3 days) is 1230 nM; in the data set on renal cancer (CAKI-1) (CAKI-1, drug exposure 3 days), more than 5000 nM; with lung carcinoma (A-549) (setting [8]) it was 700 nM; with ovarian cancer (1A9) (setting [9]), 140 nM; in data set [2] (setting [10]), 8900 nM; in data set [3] (setting [11]) it was 2780 nM. Moreover, in data set [1], the “Cytotoxicity (ED50) KB” value stood at 30 nM. The “Resistance Fold PAX-10” value with PAX-10 is more than 36.
With `C/C=C(\C)C(=O)N[C@@H](c1ccccc1)[C@@H](OC(=O)c1ccc(C=Nc2ccc(N[C@@H]3c4cc5c(cc4[C@@H](c4cc(OC)c(O)c(OC)c4)[C@H]4C(=O)OC[C@@H]43)OCO5)cc2)cc1)C(=O)O[C@H]1C[C@@]2(O)[C@@H](OC(=O)c3ccccc3)[C@@H]3[C@]4(OC(C)=O)CO[C@@H]4C[C@H](O)[C@@]3(C)C(=O)[C@H](OC(C)=O)C(=C1C)C2(C)C` [Compound 16], the EC50 is more than 5000 nM in the data set with breast cancer (MCF-7) (MCF-7, drug exposure 3 days); more than 10000 nM in the data set on renal cancer (CAKI-1) (CAKI-1, drug exposure 3 days); 3550 nM with lung carcinoma (A-549) (setting [8]); 1120 nM in the data set on ovarian cancer (1A9) (setting [9]); more than 40000 nM in data set [2] (setting [10]); more than 40000 nM in [3] (setting [11]). Besides, the “activity against paclitaxel resistant cells (in words)” value in data set [6] is “enhanced activity against paclitaxel resistant cells”. The “Cytotoxicity (ED50) KB” value in data set [1] was found to be 1400 nM. The “Resistance Fold PAX-10” value in the data set with PAX-10 was 7.5.
Take `COc1cc([C@@H]2c3cc4c(cc3[C@@H](O[C@@H]3O[C@@H]5CO[C@@H](C)O[C@H]5[C@H](O)[C@H]3O)[C@H]3COC(=O)[C@H]23)OCO4)cc(OC)c1O` [Etoposide, etoposide, reference compound]: the EC50 in the data set with breast cancer (MCF-7) (Homo sapiens, MCF7, 72 h) was more than 5000 nM; in the data set with renal cancer (CAKI-1) (Homo sapiens, CAKI-1, 72 h), 2200 nM; in the data set on lung carcinoma (A-549) (Homo sapiens, A549, 72 h) it was 1950 nM; with ovarian cancer (1A9) (Homo sapiens, 72 h) it was 600 nM; in data set [3] (Homo sapiens, HCT-8, 72 h), more than 5000 nM. Further, the “Cellular protein-DNA complex formation” value in data set [7] came to 100%. In the data set on KB-VCR, the “Resistance Fold KB-VCR” value is recorded as 153. Moreover, the “Inhibition of Topo II IC100” value in the data set on Topoisomerase II was found to be 100 µM. In addition, the “Cytotoxicity (ED50) KB” value in data set [1] is 200 nM. Besides, in the data set on PAX-10, the “Resistance Fold PAX-10” value is recorded as more than 16. Besides, in the data set on KB-CPT, the “Resistance Fold KB-CPT” value was 1. Also, the “Resistance Fold KB-7d” value in the data set with KB-7d is on record as 119. For the same compound, in the data set on PAX-22, the “Resistance Fold PAX-22” value was more than 16.
Take `COc1cc([C@@H]2c3cc4c(cc3[C@@H](Nc3ccc([N+](=O)[O-])cc3)[C@H]3COC(=O)[C@H]23)OCO4)cc(OC)c1O` [GL-331, reference compound]: the EC50 with breast cancer (MCF-7) (MCF-7, drug exposure 3 days) amounted to 9290 nM; with renal cancer (CAKI-1) (CAKI-1, drug exposure 3 days) it was 1800 nM; in the data set on lung carcinoma (A-549) (setting [8]), 480 nM; in the data set on ovarian cancer (1A9) (setting [9]) it was 200 nM; in data set [2] (setting [10]), 5950 nM; in data set [3] (setting [11]), 3380 nM. Moreover, in data set [7], the “Cellular protein-DNA complex formation” value was 134 +/− 7%. Further, in the data set on KB-VCR, the “Resistance Fold KB-VCR” value came out at 3. Also, in the data set with Topoisomerase II, the “Inhibition of Topo II IC100” value stood at 50 µM. For the same compound, in data set [1], the “Cytotoxicity (ED50) KB” value stood at 1860 nM. Besides, the “Resistance Fold PAX-10” value in the data set on PAX-10 amounted to 13. Also, the “Resistance Fold KB-CPT” value with KB-CPT is 1. The “Resistance Fold KB-7d” value in the data set with KB-7d is on record as 2. For the same compound, the “Resistance Fold PAX-22” value in the data set with PAX-22 is 8.
Regarding `CC(=O)O[C@H]1C(=O)[C@@]2(C)[C@H]([C@H](OC(=O)c3ccccc3)[C@]3(O)C[C@H](OC(=O)[C@H](O)[C@@H](NC(=O)c4ccccc4)c4ccccc4)C(C)=C1C3(C)C)[C@]1(OC(C)=O)CO[C@@H]1C[C@@H]2O` [Paclitaxel, paclitaxel, reference compound], the EC50 was 6 nM in the data set with lung carcinoma (A-549) (Homo sapiens, A549, 72 h); 2 nM in the data set on ovarian cancer (1A9) (Homo sapiens, 72 h); 13 nM in data set [3] (Homo sapiens, HCT-8, 72 h). The “Resistance Fold KB-VCR” value with KB-VCR worked out at 15. In addition, the “Cytotoxicity (ED50) KB” value in data set [1] is 16 nM. Besides, in the data set with PAX-10, the “Resistance Fold PAX-10” value is on record as 24. Also, the “Resistance Fold KB-CPT” value in the data set on KB-CPT is given as 1. The “Resistance Fold KB-7d” value in the data set on KB-7d is reported as 1. Besides, the “Resistance Fold PAX-22” value with PAX-22 was found to be 24.
